Earlier results in patent publication US20260355312A1, “COMBINED THERAPY DRUG COMPRISING ANTI-HER2 BISPECIFIC ANTIBODY AND USE THEREOF” (JIANGSU ALPHAMAB BIOPHARMACEUTICALS CO., LTD., priority 2023, published 2026).

Test system: tumor

CC(=O)O[C@@]12CO[C@@H]1C[C@H](O)[C@@]1(C)C(=O)[C@H](O)C3=C(C)[C@@H](OC(=O)[C@H](O)[C@@H](NC(=O)OC(C)(C)C)c4ccccc4)C[C@@](O)([C@@H](OC(=O)c4ccccc4)[C@H]21)C3(C)C [Docetaxel, docetaxel]
antitumor activity compared to paclitaxel: stronger antitumor activity than paclitaxel
